Read-outs that look alike come from different tables or passages of the source.
Experiments:
[1] = tested on: Salmonella Enteritidis, ATCC 13076; test: Microtiter plate assay, growth inhibition; type: cell-based; conditions: Salmonella enterica, read-out: level needed to inhibit the growth (MIC)
Protocol: (§1) Stock cultures of Escherichia coli 413-1, ATCC 25922, Salmonella Enteritidis, ATCC 13076, Bacillus subtilis PB6 (Kemin Industries) and Lactobacillus johnsonii D115 (Kemin Industries) were cultured from agar plates held at 4° C. and inoculated into tubes of either Tryptic Soy Broth (TSB) or de Man, Rogosa and Sharpe (MRS) broth. The bacteria were incubated aerobically or anaerobically as appropriate at 37° C. for 20-22 h. All microbial cultures used in this work are strains maintained in an in-house culture collection.
(§2) Stock solutions of 1000 ppm each of carvacrol and thymol standards were prepared in sterile TSB to which 0.1% agar was added for stabilization of the oil:water emulsion (Rasooli et al., 2007; Burt, S. and R. Reinders. 2003. Antibacterial activity of selected plant essential oils against Escherichia coli O157:H7. Letters Appl. Microbiol. 36:162-167). Subsequent dilutions and/or combinations of the standard stock solutions were prepared in TSB to achieve the targeted inclusion level of each molecule.
(§3) Stock solutions of 1000 ppm were made of each of the HC and HT extracted oils in sterile TSB or MRS broth to which 0.1% agar was added. Subsequent dilutions and/or combinations of the extracted oil stock solutions were prepared in TSB or MRS to achieve the targeted inclusion level of each molecule.
(§4) The efficacy of carvacrol and thymol in the inhibition of microbial growth was evaluated in a microtiter plate assay measuring the optical density at 620 nm using an Optimax microtiter plate reader (Molecular Devices, Sunnyvale, Calif.). Plates were read kinetically (aerobic organisms) or endpoint (anaerobic organisms) over 20-24 h while maintaining temperature at 35° C. All results reflect the average optical density measurements of four microtiter wells. A 100 uL aliquot of a test organism (1.0E+06 cfu/mL) in sterile saline and a 100 μL aliquot of experimental treatment were dispensed into individual microtiter plate wells. Treatments prepared in TSB were used for E. coli, S. Enteritidis and PB6 while treatments prepared in MRS broth were used for L. johnsonii D115. Positive controls consisted of 100 μL of test organism in sterile saline and 100 μL of sterile TSB or MRS. Negative controls were made of 100 μL of sterile TSB or MRS and 100 μL of sterile saline (no organisms).
(§5) The inhibitory levels of carvacrol and thymol against selected microorganisms were evaluated through several formulation matrices designed to assess the individual molecules as well as combinations of the molecules. Initially, thirteen formulations were prepared according to the incomplete 4×4 matrix design in Table 1 using 0, 125, 250 and 500 ppm each of carvacrol standard and thymol standard to evaluate the inhibitory activity toward selected microorganisms. […]

[2] = tested on: Escherichia coli 413-1, ATCC 25922; test: Microtiter plate assay, growth inhibition; type: cell-based
Protocol: as §1, §2, §3, §4, §5

MIC ([1]; microtiter plate, OD 620 nm, 20-24 h, 35° C.) [µg/mL] | MIC ([2]; ATCC25922, microtiter plate, OD 620 nm, 20-24 h, 35° C., read-out: level needed to inhibit the growth (MIC)) [µg/mL] | SMILES | MIC [1] [µg/mL] | MIC ([2]; ATCC25922, read-out: level needed to inhibit the growth (MIC)) [µg/mL]
125 to 250 | 125 to 250 | Cc1ccc(C(C)C)c(O)c1 [thymol] |  | 
 |  | Cc1ccc(C(C)C)cc1O [carvacrol] | 125 to 250 | 125 to 250

— patent US20160157482A1, “Antimicrobial Compositions Containing Carvacrol and Thymol” (Kemin Industries, Inc., priority 2013, published 2016)
